Experimental findings from patent US6437006B1, “Pharmaceutical carrier formulation” (American Cyanamid Company, priority 1999, dated 2002) are described below.

Molecules are shown by their SMILES.

One may read the melting point as the temperature, or range, at which the solid turns liquid. The compound `Cc1ccn(-c2ccc(C(=O)N3Cc4cccn4Cc4ccccc43)c(Cl)c2)n1` [Isomer A] gave a melting point of 141 to 143 °C.
